In ChEMBL document CHEMBL1201862, “PubChem BioAssay data set” (2004):
Blank lines part the entries; values can stand above or below the molecule they belong to. Activity calls are given as the source filed them.

What was measured:
[1] = biological target: T1, Voltage-gated N-type calcium channel alpha-1B subunit/Amyloid beta A4 precursor protein-binding family A member 1 (Homo sapiens, UniProt Q00975+Q02410); format: protein assay
[2] = biological target: T1, Voltage-gated N-type calcium channel alpha-1B subunit/Amyloid beta A4 precursor protein-binding family A member 1; format: protein assay; remark: listed apart in the source
T-cell = assay: inhibitors of CD8+ T cell–vesicle binding, dose response, mouse 2C CD8+ T cells, flow cytometry (AID 485284); format: functional
Mu-type opioid receptor = Mu-type opioid receptor (Homo sapiens, UniProt P35372); assay: SAR Analysis of Antagonists of the MOR Receptor using an Image-Based Assay - Set 3. [Related pubchem assays (depositor defined):AID1777, AID1785, AID1786, AID1966, AID2133, AID2136, AID2284, AID2285, AID2420]; format: functional
[3] = biological target: T2, Kappa-type opioid receptor (Homo sapiens, UniProt P41145); assay: SAR analysis of small molecule antagonists of the kappa opioid receptor via a luminescent beta-arrestin assay - Set 3. [Related pubchem assays (depositor defined):AID1777, AID1778, AID1785, AID1786, AID1966, AID2133, AID2136, AID2285, AID2495]; format: functional
[4] = biological target: T2, Kappa-type opioid receptor; assay: SAR analysis of Antagonists of the Kappa Opioid Receptor (KOR) using an Image-Based Assay - Set 3. [Related pubchem assays (depositor defined):AID1777, AID1785]; format: functional
[5] = biological target: Delta-type opioid receptor (Homo sapiens, UniProt P41143); assay: SAR Analysis of Antagonists of the DOR Receptor using an Image-Based Assay - Set 3. [Related pubchem assays (depositor defined):AID1777, AID1785]; format: functional;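 further: U2OS cells expressing DOR1 and beta-arrestin GFP stimulated with 100 nM SNC80; imaging of GFP-tagged beta-arrestin moving into spots after receptor activation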
[6] = biological target: Alkaline phosphatase, placental type (Homo sapiens, UniProt P05187); assay: PLAP enzyme inhibitors, confirmation, biochemical, luminescence (AID 1512); format: functional
[7] = biological target: T3, Alkaline phosphatase, tissue-nonspecific isozyme (Homo sapiens, UniProt P05186); assay: human TNAP enzyme inhibitors, SAR follow-up, biochemical, luminescent, dose response (AID 1056)
T3 sequence (P05186 whole entry): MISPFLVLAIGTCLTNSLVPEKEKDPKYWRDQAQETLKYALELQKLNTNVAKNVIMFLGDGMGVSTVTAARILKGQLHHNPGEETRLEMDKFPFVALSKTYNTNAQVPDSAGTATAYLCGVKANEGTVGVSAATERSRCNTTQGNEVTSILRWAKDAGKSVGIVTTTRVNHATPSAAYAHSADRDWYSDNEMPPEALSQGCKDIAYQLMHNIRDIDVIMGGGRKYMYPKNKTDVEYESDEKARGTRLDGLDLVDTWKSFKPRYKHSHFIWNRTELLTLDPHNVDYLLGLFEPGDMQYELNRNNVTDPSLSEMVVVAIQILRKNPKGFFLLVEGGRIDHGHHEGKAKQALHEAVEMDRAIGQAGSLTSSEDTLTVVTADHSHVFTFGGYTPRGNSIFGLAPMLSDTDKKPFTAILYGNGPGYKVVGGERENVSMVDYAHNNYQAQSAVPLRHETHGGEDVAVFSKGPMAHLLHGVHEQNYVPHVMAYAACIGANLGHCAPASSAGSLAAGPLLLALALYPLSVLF

T1 sequence (Q00975 whole entry): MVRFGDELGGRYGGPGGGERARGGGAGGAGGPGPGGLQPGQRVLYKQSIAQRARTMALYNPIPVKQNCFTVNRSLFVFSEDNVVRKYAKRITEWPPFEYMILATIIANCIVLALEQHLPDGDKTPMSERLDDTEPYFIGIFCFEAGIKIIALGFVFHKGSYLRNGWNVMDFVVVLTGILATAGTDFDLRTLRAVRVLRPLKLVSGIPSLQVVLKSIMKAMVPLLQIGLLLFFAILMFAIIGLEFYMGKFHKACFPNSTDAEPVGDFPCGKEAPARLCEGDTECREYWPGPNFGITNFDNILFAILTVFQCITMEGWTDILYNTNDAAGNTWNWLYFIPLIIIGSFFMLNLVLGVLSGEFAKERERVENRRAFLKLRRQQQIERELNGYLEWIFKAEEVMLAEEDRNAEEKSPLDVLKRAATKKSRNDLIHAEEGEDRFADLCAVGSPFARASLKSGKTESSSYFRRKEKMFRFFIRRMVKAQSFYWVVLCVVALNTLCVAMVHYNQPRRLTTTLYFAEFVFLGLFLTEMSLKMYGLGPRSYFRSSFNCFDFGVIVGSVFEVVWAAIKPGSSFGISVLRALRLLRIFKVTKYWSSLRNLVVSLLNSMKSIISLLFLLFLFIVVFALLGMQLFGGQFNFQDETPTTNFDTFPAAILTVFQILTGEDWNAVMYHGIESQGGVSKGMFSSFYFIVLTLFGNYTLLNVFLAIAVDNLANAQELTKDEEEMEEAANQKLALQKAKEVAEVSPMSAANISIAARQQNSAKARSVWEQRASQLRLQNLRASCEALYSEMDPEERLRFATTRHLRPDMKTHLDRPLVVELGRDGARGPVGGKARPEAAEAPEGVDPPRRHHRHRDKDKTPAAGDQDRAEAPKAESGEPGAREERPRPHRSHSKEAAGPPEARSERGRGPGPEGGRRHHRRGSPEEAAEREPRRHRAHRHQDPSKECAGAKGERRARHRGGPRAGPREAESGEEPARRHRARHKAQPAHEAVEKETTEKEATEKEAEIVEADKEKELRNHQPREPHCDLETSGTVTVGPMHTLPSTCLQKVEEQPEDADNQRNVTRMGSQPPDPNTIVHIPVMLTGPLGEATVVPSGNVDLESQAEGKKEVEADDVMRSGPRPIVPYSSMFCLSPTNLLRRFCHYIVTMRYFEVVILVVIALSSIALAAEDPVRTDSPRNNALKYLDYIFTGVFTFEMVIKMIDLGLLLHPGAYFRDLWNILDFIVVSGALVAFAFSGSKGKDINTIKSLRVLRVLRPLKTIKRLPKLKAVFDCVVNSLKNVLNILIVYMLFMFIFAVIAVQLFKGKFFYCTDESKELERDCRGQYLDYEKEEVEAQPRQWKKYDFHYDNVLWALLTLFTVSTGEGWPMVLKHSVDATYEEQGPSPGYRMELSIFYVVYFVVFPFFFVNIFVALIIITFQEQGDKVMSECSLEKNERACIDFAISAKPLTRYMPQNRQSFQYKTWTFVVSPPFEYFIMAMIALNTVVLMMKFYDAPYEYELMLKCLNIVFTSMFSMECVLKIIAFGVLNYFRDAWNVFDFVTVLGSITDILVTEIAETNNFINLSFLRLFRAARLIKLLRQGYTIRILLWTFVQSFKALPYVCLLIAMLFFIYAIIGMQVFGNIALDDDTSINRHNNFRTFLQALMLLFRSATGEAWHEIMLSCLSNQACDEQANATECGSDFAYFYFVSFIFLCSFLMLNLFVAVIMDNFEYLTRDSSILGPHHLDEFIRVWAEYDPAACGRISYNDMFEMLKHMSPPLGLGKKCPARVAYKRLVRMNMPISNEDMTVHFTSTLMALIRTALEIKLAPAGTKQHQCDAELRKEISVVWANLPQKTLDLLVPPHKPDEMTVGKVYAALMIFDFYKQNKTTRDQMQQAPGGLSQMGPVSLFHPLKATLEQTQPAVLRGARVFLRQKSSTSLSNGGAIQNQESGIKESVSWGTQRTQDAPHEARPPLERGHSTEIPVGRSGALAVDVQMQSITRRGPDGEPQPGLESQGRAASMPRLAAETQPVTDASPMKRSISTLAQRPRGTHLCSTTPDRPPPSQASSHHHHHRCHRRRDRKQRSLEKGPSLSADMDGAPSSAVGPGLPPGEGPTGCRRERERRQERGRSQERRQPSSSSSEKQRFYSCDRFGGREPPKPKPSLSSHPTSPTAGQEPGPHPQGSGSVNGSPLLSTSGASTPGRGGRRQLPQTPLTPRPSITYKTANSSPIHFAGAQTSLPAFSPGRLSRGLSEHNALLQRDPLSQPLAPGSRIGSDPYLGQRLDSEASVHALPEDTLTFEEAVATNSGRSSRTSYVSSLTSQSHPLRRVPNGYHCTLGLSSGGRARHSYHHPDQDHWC
T1 sequence (Q02410 whole entry): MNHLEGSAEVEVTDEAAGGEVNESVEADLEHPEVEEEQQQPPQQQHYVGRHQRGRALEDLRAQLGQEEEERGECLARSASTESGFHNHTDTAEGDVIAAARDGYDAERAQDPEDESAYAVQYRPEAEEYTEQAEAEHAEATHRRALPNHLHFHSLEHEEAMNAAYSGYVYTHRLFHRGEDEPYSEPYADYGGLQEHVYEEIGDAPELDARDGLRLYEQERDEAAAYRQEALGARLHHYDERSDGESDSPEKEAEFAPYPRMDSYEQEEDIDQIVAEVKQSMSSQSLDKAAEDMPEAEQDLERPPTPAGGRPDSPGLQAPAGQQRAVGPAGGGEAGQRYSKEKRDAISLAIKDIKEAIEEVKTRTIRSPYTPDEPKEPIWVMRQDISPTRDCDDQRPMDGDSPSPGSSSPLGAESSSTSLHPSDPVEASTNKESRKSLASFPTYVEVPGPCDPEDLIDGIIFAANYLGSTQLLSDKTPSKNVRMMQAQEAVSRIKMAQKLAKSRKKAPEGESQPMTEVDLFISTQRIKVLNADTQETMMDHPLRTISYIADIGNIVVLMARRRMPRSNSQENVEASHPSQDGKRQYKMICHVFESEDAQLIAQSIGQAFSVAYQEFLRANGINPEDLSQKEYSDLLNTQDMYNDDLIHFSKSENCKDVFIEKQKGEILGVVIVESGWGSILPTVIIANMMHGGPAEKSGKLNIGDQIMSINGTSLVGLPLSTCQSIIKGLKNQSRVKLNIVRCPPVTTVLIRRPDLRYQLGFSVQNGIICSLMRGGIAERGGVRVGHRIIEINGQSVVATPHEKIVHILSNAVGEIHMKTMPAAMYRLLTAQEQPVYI
T2 sequence (P41145 whole entry): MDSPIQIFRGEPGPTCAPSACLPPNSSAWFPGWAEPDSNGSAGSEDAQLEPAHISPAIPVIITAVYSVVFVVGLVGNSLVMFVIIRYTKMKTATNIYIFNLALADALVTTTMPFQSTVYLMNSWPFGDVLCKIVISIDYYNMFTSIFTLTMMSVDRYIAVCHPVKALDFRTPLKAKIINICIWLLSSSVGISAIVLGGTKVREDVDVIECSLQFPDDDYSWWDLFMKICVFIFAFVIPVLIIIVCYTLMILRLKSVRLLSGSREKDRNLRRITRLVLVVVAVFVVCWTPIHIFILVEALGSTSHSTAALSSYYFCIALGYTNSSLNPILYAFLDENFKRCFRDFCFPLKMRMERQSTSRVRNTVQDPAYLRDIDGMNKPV
Delta-type opioid receptor, sequence (P41143 whole entry): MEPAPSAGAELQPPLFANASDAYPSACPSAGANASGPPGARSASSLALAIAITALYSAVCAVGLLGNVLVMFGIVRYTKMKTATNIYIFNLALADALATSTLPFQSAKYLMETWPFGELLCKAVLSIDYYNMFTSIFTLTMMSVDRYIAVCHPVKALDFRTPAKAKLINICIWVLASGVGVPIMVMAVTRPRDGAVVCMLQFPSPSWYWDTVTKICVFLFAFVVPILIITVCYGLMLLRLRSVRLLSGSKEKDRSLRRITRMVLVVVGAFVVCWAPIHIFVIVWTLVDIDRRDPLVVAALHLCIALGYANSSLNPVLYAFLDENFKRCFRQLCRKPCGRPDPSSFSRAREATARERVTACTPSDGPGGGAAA
Mu-type opioid receptor, sequence (P35372 whole entry): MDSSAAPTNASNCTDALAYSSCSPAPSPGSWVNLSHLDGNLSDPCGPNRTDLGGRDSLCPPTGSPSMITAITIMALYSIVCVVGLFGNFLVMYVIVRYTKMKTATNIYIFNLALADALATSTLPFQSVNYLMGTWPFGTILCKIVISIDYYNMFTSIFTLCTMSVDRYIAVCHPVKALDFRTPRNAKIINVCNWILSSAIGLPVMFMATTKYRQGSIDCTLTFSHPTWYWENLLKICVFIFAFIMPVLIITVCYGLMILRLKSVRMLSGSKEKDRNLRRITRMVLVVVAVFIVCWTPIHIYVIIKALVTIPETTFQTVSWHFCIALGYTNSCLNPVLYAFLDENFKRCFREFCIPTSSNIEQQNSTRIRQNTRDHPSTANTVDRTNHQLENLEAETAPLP
Alkaline phosphatase, placental type, sequence (P05187 whole entry): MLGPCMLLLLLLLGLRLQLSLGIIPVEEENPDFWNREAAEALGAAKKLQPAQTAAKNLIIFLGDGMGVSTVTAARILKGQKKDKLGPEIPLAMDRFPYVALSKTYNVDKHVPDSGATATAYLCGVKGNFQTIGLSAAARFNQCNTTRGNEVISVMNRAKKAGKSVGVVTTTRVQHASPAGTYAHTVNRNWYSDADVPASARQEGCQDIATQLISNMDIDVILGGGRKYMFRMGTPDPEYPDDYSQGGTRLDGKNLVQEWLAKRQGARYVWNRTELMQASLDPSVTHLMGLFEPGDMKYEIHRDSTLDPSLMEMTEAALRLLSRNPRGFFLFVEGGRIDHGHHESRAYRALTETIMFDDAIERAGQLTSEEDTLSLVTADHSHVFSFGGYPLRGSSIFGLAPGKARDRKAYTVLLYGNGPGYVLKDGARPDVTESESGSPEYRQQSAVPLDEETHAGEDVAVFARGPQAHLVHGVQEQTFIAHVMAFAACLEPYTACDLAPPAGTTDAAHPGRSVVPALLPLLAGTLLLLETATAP

IC50 [1]: > 50 µM (inactive)
IC50 [2]: 12.1 µM (active)
Structure (SMILES): Cc1c(C)c2c(OCC(=O)Nc3cccnc3)cc3c(c2oc1=O)CCC(C)(C)O3

Structure (SMILES): CN(C)C=O.O=C(COC(=O)C12CC3CC(CC(Br)(C3)C1)C2)Nc1cccc(S(=O)(=O)N2CCOCC2)c1
EC50 (T-cell): 4.6 µM (active)

IC50 (Mu-type opioid receptor): > 32 µM (inactive)
IC50 [3]: 2.29 µM (active)
IC50 [4]: 0.532 µM (active)
IC50 [5]: > 32 µM (inactive)
Structure (SMILES): COc1ccc(CN(CCNC(=O)c2ccc(CNS(=O)(=O)c3ccc(C)cc3)cc2)C(C)C)cc1

IC50 [6]: 55.5 µM (active)
IC50 [7]: > 100 µM (inactive)
Structure (SMILES): CCOC(=O)NC1(C(Cl)(Cl)Cl)Oc2ccc(Cl)cc2O1 (centres undefined)
